Results on 34 molecules are retold here after patent publication US20050228007A1, “Isoquinoline derivatives and methods of use thereof” (priority 2004, published 2005).

Assay [1] concerns the target T1, PARS (Mus musculus, UniProt P11103).
T1 construct: endogenous in cells; host or cells: RAW mouse macrophages
Kind of assay: PARS activation in peroxynitrite-treated cultured macrophages (whole-cell 3H-NAD+ assay). The assay is classed as cell-based. The note with it: cultured murine macrophages; for inhibition at 0.1 µM / % PARS inhibition at 100 nM: 100 nM; for % PARS inhibition at 300 nM / inhibition at 0.3 µM: 300 nM. Here is the method:
Raw mouse macrophages were cultured in DMEM medium with high glucose and supplemented with 10% fetal bovine serum. Cells were used at 80% confluence in 12-well plates. Cells were pretreated with various concentrations (100 nM -1 µM) of an Isoquinoline Derivative for 10 min. Peroxynitrite, a prototypical oxidant which induces DNA single strand breakage, was used to induce PARS activation. Peroxynitrite was diluted in phosphate buffered saline (PBS) (pH 11.0) and added to the cells in a bolus of 50 μl. Cells were then incubated for 20 min. […] After the 20 min incubation, the cells were spun, the medium was aspirated and the cells were resuspended in 0.5 ml assay buffer (56 mM HEPES pH 7.5, 28 mM KCl, 28 mM NaCl, 2 mM MgCl2, 0.01% w/v digitonin and 0.125 μM NAD^+ and 0.5 μCi/ml ^3H-NAD^+). Following an incubation in assay buffer, (10 min at 37° C.), PARS activity was measured as follows: 200 μl ice cold 50% w/v TCA was added and the samples were incubated for 4 hours at 4° C. Samples were then spun (10 min @ 10,000 g) and pellets washed twice with ice cold 5% w/v TCA and solubilized overnight in 250 μl 2% w/v SDS/0.1 N NaOH at 37° C. The contents of the tubes were added to 6.5 ml ScintiSafe Plus scintillation liquid (Fisher Scientific) and radioactivity was determined using a liquid scintillation counter (Wallac, Gaithersburg, Md.).

Assay [2] addresses T1, PARS. Briefly: Cell protection assay, peroxynitrite-treated raw mouse macrophages. The format is cell-based. Particulars: peroxynitrite 750 μM.

T1 sequence (P11103 whole entry): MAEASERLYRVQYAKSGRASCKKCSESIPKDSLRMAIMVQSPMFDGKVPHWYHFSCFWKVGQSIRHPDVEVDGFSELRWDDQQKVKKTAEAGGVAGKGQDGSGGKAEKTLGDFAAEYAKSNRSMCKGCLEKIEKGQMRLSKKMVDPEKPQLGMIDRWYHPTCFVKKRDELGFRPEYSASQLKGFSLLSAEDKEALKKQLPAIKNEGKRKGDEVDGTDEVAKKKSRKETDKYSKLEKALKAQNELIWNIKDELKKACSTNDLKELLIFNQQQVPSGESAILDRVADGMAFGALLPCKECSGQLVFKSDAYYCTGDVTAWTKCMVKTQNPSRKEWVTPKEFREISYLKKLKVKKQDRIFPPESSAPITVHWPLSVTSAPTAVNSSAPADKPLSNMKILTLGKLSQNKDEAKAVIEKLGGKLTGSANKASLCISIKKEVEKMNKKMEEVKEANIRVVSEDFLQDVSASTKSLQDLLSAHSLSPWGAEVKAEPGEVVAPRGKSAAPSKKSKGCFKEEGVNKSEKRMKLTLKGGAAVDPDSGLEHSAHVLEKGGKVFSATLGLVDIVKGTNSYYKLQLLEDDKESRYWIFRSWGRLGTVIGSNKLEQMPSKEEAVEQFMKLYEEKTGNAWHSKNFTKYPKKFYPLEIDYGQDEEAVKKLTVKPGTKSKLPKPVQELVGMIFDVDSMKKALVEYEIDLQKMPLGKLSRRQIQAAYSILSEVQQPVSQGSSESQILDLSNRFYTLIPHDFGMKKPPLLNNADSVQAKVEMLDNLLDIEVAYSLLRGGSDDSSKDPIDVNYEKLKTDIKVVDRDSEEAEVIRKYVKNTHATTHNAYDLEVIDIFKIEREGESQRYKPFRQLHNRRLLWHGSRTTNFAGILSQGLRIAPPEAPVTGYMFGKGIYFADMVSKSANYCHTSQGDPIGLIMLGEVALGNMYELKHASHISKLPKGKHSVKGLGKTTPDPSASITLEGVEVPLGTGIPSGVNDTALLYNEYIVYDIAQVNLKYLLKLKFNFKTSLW

For the molecule `O=c1[nH]c2c(c3ccccc13)Cc1cc(S(=O)(=O)N3CCN(CCO)CC3)ccc1-2` [Compound 8c, 9-[N-4-(2-hydroxyethylpiperazino-1-yl)-sulphonyl]-5,6-dihydro-5-oxo-1H-indeno-[1,2-c]isoquinoline], on PARS [1], the “% PARS inhibition at 300 nM” value came out at 27%. On PARS [1], `CN(C)CCNS(=O)(=O)c1ccc2c(c1)Cc1c-2[nH]c(=O)c2ccccc12` [Compound 8g, 9-[N-(2-[N,N-dimethylamino]ethyl)aminosulphonyl]-5,6-dihydro-5-oxo-11H-indeno[1,2-c]isoquinoline] registered an inhibition at 0.1 µM of 34% and an inhibition at 0.3 µM of 55%. For the molecule `O=c1[nH]c2c(c3ccccc13)Cc1ccccc1-2` [Compound 6, 5,6-dihydro-5-oxo-11H-indeno[1,2-c]isoquinoline], on PARS [1], the inhibition at 0.1 µM was 30% and the inhibition at 1 µM was determined as 65%. As for `O=c1[nH]c2c(c3ccccc13)Cc1cc(S(=O)(=O)NCCN3CCCCC3)ccc1-2` [Compound 8h, 9-[N-(2-[piperidino-1-yl]ethyl)-aminosulphonyl]-5,6-dihydro-5-oxo-11H-indeno[1,2-c]isoquinoline], on PARS [1], the “% PARS inhibition at 100 nM” value was determined as 56% and the “% PARS inhibition at 300 nM” value stood at 76%. On PARS [1], `O=c1[nH]c2c(c3ccccc13)Cc1cc(S(=O)(=O)Cl)ccc1-2` [Compound 7, 9-chlorosulfonyl-5,6-dihydro-5-oxo-11H-indeno[1,2-c]isoquinoline] displayed an inhibition at 0.1 µM of 0% and an inhibition at 1 µM of 50%.

Take `O=c1[nH]c2c3ccc(O)cc3oc2c2ccccc12` [Compound 23b]: at PARS [1], the inhibition at 0.1 µM amounted to 53%, the inhibition at 0.3 µM stood at 57% and at 1 µM the inhibition was 58%. On to `CC1(O)c2ccccc2-c2[nH]c(=O)c3ccccc3c21` (racemic) [Compound 3b, (±) 11-hydroxy-11-methyl-5,6-dihydro-5-oxo-11H-indeno[1,2-c]isoquinoline], for which, on PARS [1], at 0.3 µM the inhibition was 0% and the inhibition at 1 µM worked out at 25%. Consider `O=c1[nH]c2c(c3ccccc13)Cc1cc(S(=O)(=O)N(CCN(CCO)CCO)CCN(CCO)CCO)ccc1-2` [Compound 8r, 9-[N,N-di(2[N,N-dihydroxyethylamino]ethyl)-aminosulphonyl]-5,6-dihydro-5-oxo-11H-indeno-[1,2c]isoquinoline], for which, on PARS [1], the “% PARS inhibition at 100 nM” value worked out at 20% and the “% PARS inhibition at 300 nM” value worked out at 28%. `O=C(CO)Nc1ccc2c(c1)Cc1c-2[nH]c(=O)c2ccccc12` [Compound 104] displayed an EC50 on PARS [2] of 65 nM. Regarding `O=c1[nH]c2c3ccccc3[nH]c2c2ccccc12` [Compound 31, 6H,11H-Indolo[3,2-c]Isoquinoline-5-one], at PARS [1], the inhibition at 0.1 µM was found to be 18%. As for `COc1ccc2oc3c4ccccc4c(=O)[nH]c3c2c1` [Compound 22a], on PARS [1], the “% PARS inhibition at 100 nM” value turned out to be 51% and the “% PARS inhibition at 1 μM” value is listed as 81%. Taken in the same sequence, the figures for `O=c1[nH]c2c(c3ccccc13)C(N1CCCCC1)c1ccccc1-2` (stereo not shown) [Compound 5d, 11-(piperidin)-5,6-dihydro-5-oxo-11H-indeno[1,2-c]isoquinoline] were 0% and 48%. With `O=c1[nH]c2c(c3ccccc13)C(N1CCOCC1)c1ccccc1-2` (racemic) [Compound 5e, (±) 11-morpholino-5,6-dihydro-5-oxo-11H-indeno[1,2-c]isoquinoline], on PARS [1], the inhibition at 0.1 µM is 0% and the inhibition at 1 µM turned out to be 21%. At PARS [1], `O=c1[nH]c2c3cc(O)ccc3oc2c2ccccc12` [Compound 23a, 8-Hydroxy-6H-11-oxa-6-aza-benzo[a]fluoren-5-one] had an inhibition at 0.1 µM of 34%, an inhibition at 0.3 µM of 79% and an inhibition at 1 µM of 84%. In the case of `CN(C)CCN(CCN(C)C)S(=O)(=O)c1ccc2c(c1)Cc1c-2[nH]c(=O)c2ccccc12` [Compound 8q, 9-[N,N di-(2-[N,N dimethylamino]ethyl)aminosulphonyl]-5,6-dihydro-5-oxo-11H-indeno-[1,2-c]isoquinoline], on PARS [1], the “% PARS inhibition at 100 nM” value is recorded as 20% and the “% PARS inhibition at 300 nM” value is 28%. `CN1CCN(C2c3ccccc3-c3[nH]c(=O)c4ccccc4c32)CC1` (racemic) [Compound 5c, (±) 11-(N-methylpiperazin)-5,6-dihydro-5-oxo-11H-indeno[1,2-c]isoquinoline]: at PARS [1], the “% PARS inhibition at 100 nM” value is recorded as 0% and the “% PARS inhibition at 1 μM” value is 24%. On PARS [2], `CCCNC(=O)Nc1ccc2c(c1)Cc1c-2[nH]c(=O)c2ccccc12` [Compound 105] came in with an EC50 of 80 nM. Consider `O=c1[nH]c2c(c3ccccc13)Cc1cc(S(=O)(=O)NCCCN3CCCC3)ccc1-2` [Compound 8m, 9-[N-(3-[tetrahydropyrrolodino-1-yl]propyl)aminosulphonyl]-5,6-dihydro-5-oxo-11H-indeno-[1,2-c]isoquinoline], for which the “% PARS inhibition at 300 nM” value on PARS [1] was determined as 50%.

With `CN(C)C1c2ccccc2-c2[nH]c(=O)c3ccccc3c21` (racemic) [Compound 5a, (±) 11-N,N-dimethylamino-5,6-dihydro-5-oxo-11H-indeno[1,2-c]isoquinoline], on PARS [1], the “% PARS inhibition at 100 nM” value is 10% and the “% PARS inhibition at 1 μM” value stood at 55%. For `O=C1c2ccccc2-c2[nH]c(=O)c3ccccc3c21` [Compound 2, 5,6-dihydro-5,11-diketo-11H-indeno[1,2-c]isoquinoline], on PARS [1], the inhibition at 0.1 µM turned out to be 16% and 1 µM produced 60% inhibition. As for `NS(=O)(=O)c1ccc2c3[nH]c(=O)c4ccccc4c3n(S(N)(=O)=O)c2c1` [Compound 35a, 6H,11H-Indolo[3,2-c]Isoquinoline-5-one-9,11-disulfonamide], at PARS [1], the inhibition at 0.1 µM amounted to 14% and at 1 µM the inhibition was 75%. Consider `O=c1[nH]c2c(c3ccccc13)Cc1cc(S(=O)(=O)N3CCCC3CO)ccc1-2` (stereo not shown) [Compound 8e, 9-[N-(2-hydroxyprolinyl)sulphonyl]-5,6-dihydro-5-oxo-11H-indeno[1,2-c]isoquinoline], for which the “% PARS inhibition at 300 nM” value at PARS [1] amounted to 68%. Take `Oc1nc2c(c3ccccc13)Cc1ccc(F)cc1-2` [Compound 99]: at PARS [2], the EC50 came out at 225 nM. As for `O=c1[nH]c2c(c3ccccc13)Cc1cc(S(=O)(=O)n3ccnc3)ccc1-2` [Compound 8d, 9-[N-(imidazolo-1-yl)sulphonyl]-5,6-dihydro-5-oxo-11H-isoquinoline], at PARS [1], the “% PARS inhibition at 100 nM” value worked out at 77% and the “% PARS inhibition at 300 nM” value was found to be 82%.

`O=c1[nH]c2c(c3ccccc13)Cc1cc(F)ccc1-2` [Compound 100]: the EC50 at PARS [2] came out at 180 nM. Regarding `CCN(CC)C1c2ccccc2-c2[nH]c(=O)c3ccccc3c21` (racemic) [Compound 5b, (±) 11diethylamino-5,6-dihydro-5-oxo-11H-indeno[1,2-c]isoquinoline], at PARS [1], the inhibition at 0.1 µM is 0% and testing at 1 µM gave an inhibition of 33%. Regarding `O=S(=O)(O)c1ccc2c(c1)Cc1c-2nc(O)c2ccccc12` [Compound 110], at PARS [2], it took 625 nM to reach a half-maximal effect (EC50). On the same count and under the same terms, the value for `Nc1ccc2c(c1)Cc1c-2[nH]c(=O)c2ccccc12` [Compound 102, 5,6-Dihydro-5-oxo-9-amino-indeno[1,2-c]isoquinoline] was 95 nM.

As for `CN1CCN(S(=O)(=O)c2ccc3c(c2)Cc2c-3[nH]c(=O)c3ccccc23)CC1` [Compound 8a, 9-[N-(4-methylpiperazine-1-yl)sulphonyl]-5,6-dihydro-5-oxo-11H-indeno-[1,2-c]isoquinoline], the “% PARS inhibition at 300 nM” value at PARS [1] is reported as 47%.

As for `COc1cccc(C2(O)c3ccccc3-c3[nH]c(=O)c4ccccc4c32)c1` (racemic) [Compound 3c, (±) 11-hydroxy-11-(m-methoxyphenyl)-5,6-dihydro-5-oxo-11H-indeno[1,2-c]isoquinoline], at PARS [1], at 0.3 µM the inhibition was 9% and the inhibition at 1 µM was determined as 21%. On to `CN1CCN(CCCNS(=O)(=O)c2ccc3c(c2)Cc2c-3[nH]c(=O)c3ccccc23)CC1` [Compound 8o, 9-[N-[3-(4-methylpiperazino-1-yl]propyl)-aminosulphonyl]-5,6-dihydro-5-oxo-11H-indeno-[1,2c]isoquinoline], for which, at PARS [1], the “% PARS inhibition at 100 nM” value turned out to be 48% and the “% PARS inhibition at 300 nM” value is reported as 55%. For `O=c1[nH]c2c(c3ccccc13)C(Br)c1ccccc1-2` (racemic) [Compound 4b, (±) 11-bromo-5,6-dihydro-5-oxo-11H-indeno[1,2-c]isoquinoline], on PARS [1], the inhibition at 0.1 µM turned out to be 51% and the inhibition at 1 µM was determined as 88%. On PARS [1], `O=c1[nH]c2c(c3ccccc13)C(O)c1ccccc1-2` (racemic) [Compound 3a, (±) 11-hydroxy-5,6-dihydro-5-oxo-11H-indeno[1,2-c]isoquinoline] came in with an inhibition at 0.1 µM of 8% and an inhibition at 1 µM of 67%. In the case of `O=S(=O)(NCCCN1CCOCC1)c1cc2c(cc1F)-c1nc(O)c3ccccc3c1C2` [Compound 107], a half-maximal response at PARS [2] (EC50) required 10 nM.
